Test results: BigSolDB 2.1

CO/N=C(\C(=O)N[C@@H]1C(=O)N2C(C(=O)O)=C(CSC(=O)c3ccco3)CS[C@H]12)c1csc(N)n1.Cl
Settings	solubility (mole fraction)
in acetone, 283.36 K	1e-05
in acetone, 288.2 K	1.6e-05
in acetone, 293.15 K	2.7e-05
in acetone, 298.05 K	4.3e-05
in acetone, 302.87 K	7e-05
in acetone, 307.65 K	0.00011
in acetone, 313.45 K	0.000193
in acetone, 318.4 K	0.000313
in acetone, 322.35 K	0.000478
in ethanol, 283.35 K	0.00178
in ethanol, 288.15 K	0.00192
in ethanol, 293.15 K	0.00209
in ethanol, 298.15 K	0.00233
in ethanol, 303.1 K	0.00262
in ethanol, 307.95 K	0.00292
in ethanol, 313.55 K	0.00335
in ethanol, 318.75 K	0.00384
in ethanol, 322.65 K	0.00421
in isopropanol, 283.2 K	0.000235
in isopropanol, 288.2 K	0.000255
in isopropanol, 293.15 K	0.000311
in isopropanol, 298.15 K	0.000402
in isopropanol, 303.05 K	0.000535
in isopropanol, 308 K	0.000649
in isopropanol, 312.8 K	0.000793
in isopropanol, 318.45 K	0.001
in isopropanol, 324.35 K	0.00134
in methanol, 283.25 K	0.00952
in methanol, 288.25 K	0.00992
in methanol, 293.15 K	0.0105
in methanol, 297.85 K	0.0112
in methanol, 300.55 K	0.0116
in methanol, 307.35 K	0.0127
in methanol, 313.3 K	0.0137
in methanol, 317.95 K	0.0148
in methanol, 320.65 K	0.0155
in n-propanol, 283.55 K	0.000534
in n-propanol, 288.55 K	0.000573
in n-propanol, 293.35 K	0.000646
in n-propanol, 298.35 K	0.000717
in n-propanol, 303.35 K	0.000802
in n-propanol, 308.05 K	0.000922
in n-propanol, 312.95 K	0.00103
in n-propanol, 317.95 K	0.00117
in n-propanol, 322.75 K	0.00135
